The source of these data is patent US7223888B2, “Mu opioid receptor ligands: methods of use and synthesis” (President and Fellows of Harvard College, priority 2002, dated 2007).

One assay concerns the target T1, hDOR-1 (Homo sapiens, UniProt P41143).
T1 construct: purchased Amersham Biosciences; host or cells: stably transfected HEK-293 cells (membrane preparation)
The assay can be described thus: Opioid receptor competitive binding assay, DOR. The conditions noted are these: for Ki DOR/Ki MOR: Table 12, selectivity for MOR versus DOR (3H-DPDPE, hDOR-1). The protocol:
(§1) For selected compounds, Ki for MOR, DOR, and KOR were determined according to the following procedure: Recombinant hMOR-1 membrane preps from stably transfected CHO cells and recombinant hDOR-1 membrane preps from stably transfected HEK-293 cells were purchased from Amersham Biosciences. Guinea pig cerebellum preparations were used for KOR assays.
(§2) Each microassay from an assay plate was filtered through an individual well of a Packard GF/B 96-well filter plate (glass fiber filter) to collect the membranes. Each well was washed twice with 200 μL of ice cold wash buffer (50 mM Tris, pH 7.4). The filter plate was allowed to dry overnight, the back was sealed, and Packard Bioscience Microscint PS scintillation fluid (75 μL) was added to each well, which was then counted for ^3H for 2 minutes using a Packard Bioscience TopCount scintillation counter plate reader.
(§3) Each compound was assayed at 8 concentrations, using half-log serial dilutions. Each concentration was tested in triplicate, and the ^3H cpm were averaged.
(§4) This concentration was determined experimentally by scintillation counting an aliquot of the radioligand stock solution used in the assay.
(§5) Kd=the binding constant for the radioligand.
(§6) This triplicate experiment was repeated three times for the MOR and twice for the DOR and the KOR.

The next assay deals with T2, KOR (Cavia porcellus, UniProt P41144).
T2 construct: from tissue; host or cells: guinea pig cerebellum preparation
In words: Opioid receptor competitive binding assay, KOR (3H-U-69,593). On the set-up: species or system guinea pig. The conditions noted are these: for Ki KOR/Ki MOR: Table 12, selectivity for MOR versus KOR. As for the experimental part:
as §1, §2, §3, §6

The target in a further assay is T3, hMOR-1 (Homo sapiens, UniProt P35372).
T3 construct: purchased Amersham Biosciences; host or cells: stably transfected CHO cells (membrane preparation)
In words: Opioid receptor competitive binding assay, MOR (3H-DAMGO). As for the experimental part:
as §1, §2, §3, §4, §5, §6

The mark [1] stands for this setting: Ki DOR, Table 6, footnote:, hDOR-1 stably transfected into HEK-293 cells, errors two standard deviations.
[2] abbreviates: Ki KOR, Table 9, 3H-U-69,593, guinea pig cerebellum preps, errors two standard deviations.
Setting [3] is: Ki MOR, Table 3, 3H-DAMGO, hMOR-1 stably transfected into CHO cells, errors 95% confidence interval.

Structures are written as SMILES. Like-named read-outs stand apart in the source and are kept apart here.

Take `NC(=O)C(Cc1ccccc1)NC(=O)C(Cc1ccccc1)C(O)/C=C/CC(O)C(N)Cc1ccc(O)cc1` (single isomer, unassigned) [(S,R,R,R)-2, (E)-8-Amino-2-benzyl-3,7-dihydroxy-9-(4-hydroxy-phenyl)-non-4-enoic acid (1-carbamoyl-2-phenyl-ethyl)-amide]: the values for the Ki on hDOR-1 (setting [1]), at KOR (setting [2]) and at hMOR-1 (setting [3]) were 1400 ± 300 nM, 1200 ± 100 nM and 67 ± 38 nM, respectively. In addition, the “Ki DOR/Ki MOR” value at hDOR-1 came out at 21. In addition, the “Ki KOR/Ki MOR” value at KOR was determined as 18.
As to `NC(=O)C(Cc1ccccc1)NC(=O)C(Cc1ccccc1)C(O)CCCC(O)C(N)Cc1ccc(O)cc1` (single isomer, unassigned) [(S,R,R,R)-6, 8-Amino-2-benzyl-3,7-dihydroxy-9-(4-hydroxy-phenyl)-nonanoic acid (1-carbamoyl-2-phenyl-ethyl)-amide], the Ki on KOR (read-out: Ki KOR) stood at 1500 ± 700 nM; at hMOR-1 (read-out: Ki MOR), 120 ± 30 nM.
For `NC(=O)C(Cc1ccccc1)NC(=O)C(Cc1ccccc1)C(O)/C=C\CC(O)C(N)Cc1ccc(O)cc1` (single isomer, unassigned) [(S,R,R,R)-9, (Z)-8-Amino-2-benzyl-3,7-dihydroxy-9-(4-hydroxy-phenyl)-non-4-enoic acid (1-carbamoyl-2-phenyl-ethyl)-amide], the Ki on hDOR-1 (setting [1]) was 9200 ± 2100 nM; at KOR (setting [2]), 5800 ± 1800 nM; at hMOR-1 (setting [3]), 400 ± 110 nM. The “Ki DOR/Ki MOR” value on hDOR-1 is reported as 23. Also, at KOR, the “Ki KOR/Ki MOR” value came to 15.
The like results for `NC(Cc1ccc(O)cc1)C(O)C/C=C/C(O)C(Cc1ccccc1)C(=O)NCCc1ccccc1` (single isomer, unassigned) [(S,R,R,R)-10, (E)-8-Amino-2-benzyl-3,7-dihydroxy-9-(4-hydroxy-phenyl)-non-4-enoic acid phenethyl-amide] were, in that order, 2900 ± 600 nM, 2800 ± 600 nM, 53 ± 6 nM, 55 and 53.
For `NC(Cc1ccc(O)cc1)C(O)C/C=C/C(O)C(Cc1ccccc1)C(=O)NC(CO)Cc1ccccc1` (single isomer, unassigned) [(S,R,R,R)-11, (E)-8-Amino-2-benzyl-3,7-dihydroxy-9-(4-hydroxy-phenyl)-non-4-enoic acid (1-hydroxymethyl-2-phenyl-ethyl)-amide], in that order: 960 ± 100 nM, 3400 ± 1300 nM, 28 ± 5 nM, 34 and 120.
For `C=CC(O)C(Cc1ccccc1)NC(=O)C(Cc1ccccc1)C(O)/C=C/CC(O)C(N)Cc1ccc(O)cc1` (single isomer, unassigned) [(S,R,R,R)-12, (E)-8-Amino-2-benzyl-3,7-dihydroxy-9-(4-hydroxy-phenyl)-non-4-enoic acid (1-benzyl-2-hydroxy-but-3-enyl)-amide], in that order: 570 ± 280 nM, 970 ± 80 nM, 37 ± 1 nM, 15 and 26.
As to `NC(=O)C(Cc1ccccc1)NC(=O)C(Cc1ccccc1)C(O)/C=C/CC(O)C(N)Cc1ccc(O)cc1` (single isomer, unassigned) [(S,R,S,R)-2, (E)-8-Amino-2-benzyl-3,7-dihydroxy-9-(4-hydroxy-phenyl)-non-4-enoic acid (1-carbamoyl-2-phenyl-ethyl)-amide], the Ki at hDOR-1 (setting [1]) was found to be 850 ± 30 nM; at KOR (setting [2]), 2900 ± 800 nM; at hMOR-1 (setting [3]), 160 ± 40 nM. Besides, at hDOR-1, the “Ki DOR/Ki MOR” value was found to be 5. Further, the “Ki KOR/Ki MOR” value at KOR was found to be 18.
Take `NC(=O)C(Cc1ccccc1)NC(=O)C(Cc1ccccc1)C(O)CCCC(O)C(N)Cc1ccc(O)cc1` (single isomer, unassigned) [(S,R,S,R)-6, 8-Amino-2-benzyl-3,7-dihydroxy-9-(4-hydroxy-phenyl)-nonanoic acid (1-carbamoyl-2-phenyl-ethyl)-amide]: the Ki was 4000 ± 100 nM on hDOR-1 (read-out: Ki DOR), 6600 ± 3500 nM on KOR (read-out: Ki KOR) and 190 ± 20 nM at hMOR-1 (read-out: Ki MOR).
`NC(=O)C(Cc1ccccc1)NC(=O)C(Cc1ccccc1)C(O)/C=C\CC(O)C(N)Cc1ccc(O)cc1` (single isomer, unassigned) [(S,R,S,R)-9, (Z)-8-Amino-2-benzyl-3,7-dihydroxy-9-(4-hydroxy-phenyl)-non-4-enoic acid (1-carbamoyl-2-phenyl-ethyl)-amide]: the Ki was 10000 ± 2000 nM on hDOR-1 (setting [1]), 1700 ± 400 nM on KOR (setting [2]) and 260 ± 70 nM on hMOR-1 (setting [3]). Also, the “Ki DOR/Ki MOR” value at hDOR-1 came out at 39. For the same compound, the “Ki KOR/Ki MOR” value on KOR is 7.
The like results for `NC(=O)C(Cc1ccccc1)NC(=O)C(Cc1ccccc1)C(O)/C=C/CC(O)C(N)Cc1ccc(O)cc1` (single isomer, unassigned) [(S,S,R,R)-2, (E)-8-Amino-2-benzyl-3,7-dihydroxy-9-(4-hydroxy-phenyl)-non-4-enoic acid (1-carbamoyl-2-phenyl-ethyl)-amide] were, in that order, 1200 ± 100 nM, 1200 ± 700 nM, 25 ± 5 nM, 45 and 48.
Regarding `NC(=O)C(Cc1ccccc1)NC(=O)C(Cc1ccccc1)C(O)CCCC(O)C(N)Cc1ccc(O)cc1` (single isomer, unassigned) [(S,S,R,R)-6, 8-Amino-2-benzyl-3,7-dihydroxy-9-(4-hydroxy-phenyl)-nonanoic acid (1-carbamoyl-2-phenyl-ethyl)-amide], the Ki on hDOR-1 (read-out: Ki DOR) was 3000 ± 100 nM; at KOR (read-out: Ki KOR) it was 730 ± 270 nM; on hMOR-1 (setting [3]), 95 ± 61 nM.
With `NC(=O)C(Cc1ccccc1)NC(=O)C(Cc1ccccc1)C(O)/C=C\CC(O)C(N)Cc1ccc(O)cc1` (single isomer, unassigned) [(S,S,R,R)-9, (Z)-8-Amino-2-benzyl-3,7-dihydroxy-9-(4-hydroxy-phenyl)-non-4-enoic acid (1-carbamoyl-2-phenyl-ethyl)-amide], the figures for the Ki on hDOR-1 (setting [1]), on KOR (setting [2]) and at hMOR-1 (setting [3]) were 4300 ± 1400 nM, 1600 ± 100 nM and 74 ± 12 nM, respectively. Moreover, the “Ki DOR/Ki MOR” value at hDOR-1 came out at 58. The “Ki KOR/Ki MOR” value on KOR was 22.
As to `NC(Cc1ccc(O)cc1)C(O)C/C=C/C(O)C(Cc1ccccc1)C(=O)NCCc1ccccc1` (single isomer, unassigned) [(S,S,R,R)-10, (E)-8-Amino-2-benzyl-3,7-dihydroxy-9-(4-hydroxy-phenyl)-non-4-enoic acid phenethyl-amide], the figures for the Ki on hDOR-1 (setting [1]), at KOR (setting [2]) and at hMOR-1 (setting [3]) were 1200 ± 300 nM, 3400 ± 300 nM and 29 ± 8 nM, respectively. Also, the “Ki DOR/Ki MOR” value at hDOR-1 is listed as 42. The “Ki KOR/Ki MOR” value on KOR is 120.
On to `NC(Cc1ccc(O)cc1)C(O)C/C=C/C(O)C(Cc1ccccc1)C(=O)NC(CO)Cc1ccccc1` (single isomer, unassigned) [(S,S,R,R)-11, (E)-8-Amino-2-benzyl-3,7-dihydroxy-9-(4-hydroxy-phenyl)-non-4-enoic acid (1-hydroxymethyl-2-phenyl-ethyl)-amide], for which the figures for the Ki at hDOR-1 (setting [1]), at KOR (setting [2]) and at hMOR-1 (setting [3]) were 620 ± 80 nM, 2900 ± 400 nM and 16 ± 1 nM, respectively. Besides, on hDOR-1, the “Ki DOR/Ki MOR” value turned out to be 39. At KOR, the “Ki KOR/Ki MOR” value is 180.
On to `NC(=O)C(Cc1ccccc1)NC(=O)C(Cc1ccccc1)C(O)CCCC(O)C(N)Cc1ccc(O)cc1` (single isomer, unassigned) [(S,S,S,R)-6, 8-Amino-2-benzyl-3,7-dihydroxy-9-(4-hydroxy-phenyl)-nonanoic acid (1-carbamoyl-2-phenyl-ethyl)-amide], for which the Ki at KOR (read-out: Ki KOR) came out at 3900 ± 1700 nM; on hMOR-1 (setting [3]), 98 ± 31 nM.

By Ki is commonly meant the equilibrium dissociation constant of an inhibitor or competing ligand from its target.
